Blank lines part the entries; values can stand above or below the molecule they belong to.
How the values were obtained:
[1] = biological target: T1, 9°N polD^− (exonuclease-deficient polD mutant H554A); assay: pre-steady-state single-turnover nucleotide incorporation, rapid chemical quench, capillary electrophoresis; format: biochemical, Thermococcus sp. 9°N; conditions: apparent Kd, correct pairing, 2 mM MgSO4, ThermoPol buffer pH 8.8 (at 25 °C), 60 °C
T1 construct: gene polC; recombinant purified heterodimer of large and small subunit, ~1:1; with DNA polymerase II small subunit

[2] = biological target: T1, 9°N polD^− (exonuclease-deficient polD mutant H554A); assay: pre-steady-state single-turnover nucleotide incorporation, rapid chemical quench, denaturing gel electrophoresis; format: biochemical, Thermococcus sp. 9°N; conditions: apparent Kd; correct pairing, template G with 5'-FAM 50-mer primer; 2 mM MgSO4, ThermoPol buffer pH 8.8 (at 25 °C), 60 °C

Kd ([1]; A Template-1 with 5'-FAM 50-mer primer): 1600 ± 100 nM
SMILES: Cc1cn([C@H]2C[C@H](O)[C@@H](COP(=O)(O)OP(=O)(O)OP(=O)(O)O)O2)c(=O)[nH]c1=O [dTTP]

Kd ([1]; template T with 5'-FAM 50-mer primer): 2500 ± 100 nM
SMILES: Nc1ncnc2c1ncn2[C@H]1C[C@H](O)[C@@H](COP(=O)(O)OP(=O)(O)OP(=O)(O)O)O1 [dATP]

Kd [2]: 1700 ± 100 nM
SMILES: Nc1ccn([C@H]2C[C@H](O)[C@@H](COP(=O)(O)OP(=O)(O)OP(=O)(O)O)O2)c(=O)n1 [dCTP]

Kd ([1]; template C with 5'-FAM 50-mer primer): 900 ± 300 nM
SMILES: Nc1nc2c(ncn2[C@H]2C[C@H](O)[C@@H](COP(=O)(O)OP(=O)(O)OP(=O)(O)O)O2)c(=O)[nH]1 [dGTP]
